One test relates to HCT116 MTAP null cells. The test is described as follows: HCT116 MTAP null cell proliferation / viability (CellTiter-Glo, 6 days). To be noted: HCT116-MTAP null, 144 h, HCT116 MTAP null cells, 6 days, CellTiter-Glo; read-out: HCT-116 MTAP null IC50. Type of test: cell-based. The method, boiled down: (§1)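 CellTiter-Glo luminescence, 6-day exposure, RPMI 1640 + 10% FBS. Dosing: 1:3 series (8-9 pts, top 1 or 10 μM) or 1:2 series (22 pts, top 10 or 50 μM), DMSO control. IC50 = 50% of control via curve fit.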
Background: In ATP-based viability assays light output follows the ATP content of the culture.

In another test the test system is HCT116 WT cells. The test is described as follows: HCT116 WT cell proliferation / viability (CellTiter-Glo, 6 days). The format is cell-based. The note with it: Homo sapiens, HCT-116, 144 h, HCT116 WT cells, 6 days, CellTiter-Glo; read-out: HCT-116 WT IC50. The method, boiled down:
as §1

Each structure is given as a SMILES string. pIC50: −log10 of the molar value.

The pIC50 is the IC50 on a negative log10 scale, so that one unit is a factor of ten. On to `CC(C)N(Cc1ccc(C(F)(F)F)nn1)C(=O)c1ccc2nc(N)c3c(c2c1)COC3` [Example 391, 4-amino-N-(2-propanyl)-N-((6-(trifluoromethyl)-3-pyridazinyl)methyl)-1,3-dihydrofuro[3,4-c]quinoline-8-carboxamide], for which the pIC50 in the test on HCT116 MTAP null cells is 7.04; in the test on HCT116 WT cells, 5.34.

As for `CC(C)N(Cc1ccc(C#N)cn1)C(=O)c1cc2c3c(c(N)nc2cc1Cl)COC3` [Example 392, 4-amino-7-chloro-N-((5-cyano-2-pyridinyl)methyl)-N-(2-propanyl)-1,3-dihydrofuro[3,4-c]quinoline-8-carboxamide], the pIC50 in the test on HCT116 MTAP null cells is 7.24; with HCT116 WT cells, 5.81.

As for `CC(C)N(Cc1ccc(C(F)(F)F)nn1)C(=O)c1ccc2nc(N)c3c(c2c1)CO[C@@H]3C` [Example 393, (3R)-4-amino-3-methyl-N-(2-propanyl)-N-((6-(trifluoromethyl)-3-pyridazinyl)methyl)-1,3-dihydrofuro[3,4-c]quinoline-8-carboxamide], the results for the pIC50 in the test on HCT116 MTAP null cells and with HCT116 WT cells were 6.95 and 5.16, respectively.

Consider `CC(C)N(Cc1ccc(C(F)(F)F)nn1)C(=O)c1cc2c3c(c(N)nc2cc1Cl)COC3` [Example 394, 4-amino-7-chloro-N-(2-propanyl)-N-((6-(trifluoromethyl)-3-pyridazinyl)methyl)-1,3-dihydrofuro[3,4-c]quinoline-8-carboxamide], for which the pIC50 in the test on HCT116 MTAP null cells is 7.52; in the test on HCT116 WT cells, 6.08.

Consider `Nc1nc2cc(Cl)c(C(=O)N(Cc3ccc(C(F)(F)F)cn3)C34CC(C3)C4)cc2c2c1COC2` [Example 395, 4-amino-N-(bicyclo[1.1.1]pentan-1-yl)-7-chloro-N-((5-(trifluoromethyl)-2-pyridinyl)methyl)-1,3-dihydrofuro[3,4-c]quinoline-8-carboxamide], for which the values for the pIC50 in the test on HCT116 MTAP null cells and in the test on HCT116 WT cells were 7.51 and 6.27, respectively.

Regarding `C[C@H]1OCc2c1c(N)nc1cnc(C(=O)N(Cc3ccc(C(F)(F)F)cn3)CC3CC3)cc21` [Example 396, (3R)-4-amino-N-(cyclopropylmethyl)-3-methyl-N-((5-(trifluoromethyl)-2-pyridinyl)methyl)-1,3-dihydrofuro[3,4-c][1,7]naphthyridine-8-carboxamide], the pIC50 was 7.70 in the test on HCT116 MTAP null cells and 6.20 with HCT116 WT cells.

For the compound `CCOc1ccc(CN(C(=O)c2cc3c4c(c(N)nc3cn2)[C@@H](C)OC4)[C@H](C)COC)nn1` [Example 397, (3R)-4-amino-N-((6-ethoxy-3-pyridazinyl)methyl)-N-((2R)-1-methoxy-2-propanyl)-3-methyl-1,3-dihydrofuro[3,4-c][1,7]naphthyridine-8-carboxamide], the values for the pIC50 with HCT116 MTAP null cells and with HCT116 WT cells were 7.26 and 5.96, respectively.

Turning to `CC1(CN(Cc2ccc(C(F)(F)F)cn2)C(=O)c2cc3c4c(c(N)nc3cn2)COC4)CC1` [Example 398, 4-amino-N-((1-methylcyclopropyl)methyl)-N-((5-(trifluoromethyl)-2-pyridinyl)methyl)-1,3-dihydrofuro[3,4-c][1,7]naphthyridine-8-carboxamide], the pIC50 with HCT116 MTAP null cells is 7.31; in the test on HCT116 WT cells, 5.86.

With `CN(Cc1ccc(C(F)(F)F)cc1)C(=O)c1ccc2nc(N)c3c(c2c1)COC3` [Example 399, 4-amino-N-methyl-N-(4-(trifluoromethyl)benzyl)-1,3-dihydrofuro[3,4-c]quinoline-8-carboxamide], the results for the pIC50 in the test on HCT116 MTAP null cells and with HCT116 WT cells were 6.41 and 5.35, respectively.

As for `CN(Cc1ccc(C(F)(F)F)nc1)C(=O)c1ccc2nc(N)c3c(c2c1)COC3` [Example 400, 4-amino-N-methyl-N-((6-(trifluoromethyl)-3-pyridinyl)methyl)-1,3-dihydrofuro[3,4-c]quinoline-8-carboxamide], the pIC50 in the test with HCT116 MTAP null cells is 6.01; in the test with HCT116 WT cells it was below 5.00.

As to `CC(C)N(Cc1ccc(C2CC2)nc1)C(=O)c1cc2c3c(c(N)nc2cc1Cl)COC3` [Example 401, 4-amino-7-chloro-N-((6-cyclopropyl-3-pyridinyl)methyl)-N-(2-propanyl)-1,3-dihydrofuro[3,4-c]quinoline-8-carboxamide], the pIC50 was 7.08 in the test on HCT116 MTAP null cells and 5.51 with HCT116 WT cells.

Regarding `CC(C)N(Cc1ccc(C2CC2)nc1)C(=O)c1cc2c3c(c(N)nc2cn1)[C@H](C)OC3` [Example 403, (3S)-4-amino-N-((6-cyclopropyl-3-pyridinyl)methyl)-3-methyl-N-(2-propanyl)-1,3-dihydrofuro[3,4-c][1,7]naphthyridine-8-carboxamide], the pIC50 is at most 5.00 in the test with HCT116 MTAP null cells and below 5.00 in the test with HCT116 WT cells.

As for `CC(C)N(Cc1ccc(C#N)cn1)C(=O)c1cc2c3c(c(N)nc2cn1)[C@@H](C)OC3` [Example 404, (3R)-4-amino-N-((5-cyano-2-pyridinyl)methyl)-3-methyl-N-(2-propanyl)-1,3-dihydrofuro[3,4-c][1,7]naphthyridine-8-carboxamide], the pIC50 is 6.74 in the test on HCT116 MTAP null cells and 4.94 in the test with HCT116 WT cells.

On to `C[C@H]1OCc2c1c(N)nc1cnc(C(=O)N(Cc3ccc(C(F)(F)F)nn3)C3CC3)cc21` [Example 405, (3R)-4-amino-N-cyclopropyl-3-methyl-N-((6-(trifluoromethyl)-3-pyridazinyl)methyl)-1,3-dihydrofuro[3,4-c][1,7]naphthyridine-8-carboxamide], for which the pIC50 is 6.44 in the test with HCT116 MTAP null cells and below 5.00 with HCT116 WT cells.

On to `CC(C)N(Cc1ccc(C2CC2)cn1)C(=O)c1cc2c3c(c(N)nc2cn1)[C@@H](C)OC3` [Example 406, (3R)-4-amino-N-((5-cyclopropyl-2-pyridinyl)methyl)-3-methyl-N-(2-propanyl)-1,3-dihydrofuro[3,4-c][1,7]naphthyridine-8-carboxamide], for which the pIC50 in the test on HCT116 MTAP null cells was 7.01; with HCT116 WT cells, 5.38.

As for `CC(C)N(Cc1ccc(C2CC2)cn1)C(=O)c1cc2c3c(c(N)nc2cn1)[C@H](C)OC3` [Example 407, (3S)-4-amino-N-((5-cyclopropyl-2-pyridinyl)methyl)-3-methyl-N-(2-propanyl)-1,3-dihydrofuro[3,4-c][1,7]naphthyridine-8-carboxamide], the values for the pIC50 in the test with HCT116 MTAP null cells and with HCT116 WT cells were 5.44 and below 5.00, respectively.

As to `CCN(Cc1ccc(C(F)(F)F)cn1)C(=O)c1cc2c3c(c(N)nc2cn1)[C@@H](C)OC3` [Example 408, (3R)-4-amino-N-ethyl-3-methyl-N-((5-(trifluoromethyl)-2-pyridinyl)methyl)-1,3-dihydrofuro[3,4-c][1,7]naphthyridine-8-carboxamide], the pIC50 in the test on HCT116 MTAP null cells was 7.07; with HCT116 WT cells, 5.47.

Consider `CCOc1ccc(CN(C(=O)c2cc3c4c(c(N)nc3cn2)[C@@H](C)OC4)C23CC(C2)C3)nn1` [Example 409, (3R)-4-amino-N-(bicyclo[1.1.1]pentan-1-yl)-N-((6-ethoxy-3-pyridazinyl)methyl)-3-methyl-1,3-dihydrofuro[3,4-c][1,7]naphthyridine-8-carboxamide], for which the pIC50 in the test with HCT116 MTAP null cells is 7.25; in the test on HCT116 WT cells it was 5.23.

Turning to `COC[C@@H](C)N(Cc1ccc(Br)nn1)C(=O)c1cc2c3c(c(N)nc2cn1)[C@@H](C)OC3` [Example 410, (3R)-4-amino-N-((6-bromo-3-pyridazinyl)methyl)-N-((2R)-1-methoxy-2-propanyl)-3-methyl-1,3-dihydrofuro[3,4-c][1,7]naphthyridine-8-carboxamide], the values for the pIC50 in the test on HCT116 MTAP null cells and in the test on HCT116 WT cells were 7.06 and 5.49, respectively.

On to `C[C@H]1OCc2c1c(N)nc1cnc(C(=O)N(C)Cc3ccc(C(F)(F)F)cn3)cc21` [Example 411, (3R)-4-amino-N,3-dimethyl-N-((5-(trifluoromethyl)-2-pyridinyl)methyl)-1,3-dihydrofuro[3,4-c][1,7]naphthyridine-8-carboxamide], for which the pIC50 in the test with HCT116 MTAP null cells was 6.74; in the test with HCT116 WT cells it was 4.87.

For `CC(C)N(Cc1ccc(C2CC2)nc1)C(=O)c1cc2c3c(c(N)nc2cn1)[C@@H](C)OC3` [Example 412, (3R)-4-amino-N-((6-cyclopropyl-3-pyridinyl)methyl)-3-methyl-N-(2-propanyl)-1,3-dihydrofuro[3,4-c][1,7]naphthyridine-8-carboxamide], the pIC50 in the test with HCT116 MTAP null cells is 6.40; with HCT116 WT cells, 4.59.

Turning to `COC(=O)N1CCN(c2ccc(CN(C)C(=O)c3ccc4nc(N)c5c(c4c3)COC5)nc2)CC1` [Example 413, methyl 4-(6-((((4-amino-1,3-dihydrofuro[3,4-c]quinolin-8-yl)carbonyl)(methyl)amino)methyl)-3-pyridinyl)-1-piperazinecarboxylate], the pIC50 is 6.06 in the test on HCT116 MTAP null cells and 4.69 in the test on HCT116 WT cells.

In the case of `C[C@@H]1OCc2c1c(N)nc1cnc(C(=O)N(C)Cc3ccc(C4CC4)cn3)cc21` [Example 414, (3S)-4-amino-N-((5-cyclopropyl-2-pyridinyl)methyl)-N,3-dimethyl-1,3-dihydrofuro[3,4-c][1,7]naphthyridine-8-carboxamide], the pIC50 was 5.23 in the test on HCT116 MTAP null cells and below 4.30 with HCT116 WT cells.

As to `C[C@H]1OCc2c1c(N)nc1cnc(C(=O)N(C)Cc3ccc(C4CC4)cn3)cc21` [Example 415, (3R)-4-amino-N-((5-cyclopropyl-2-pyridinyl)methyl)-N,3-dimethyl-1,3-dihydrofuro[3,4-c][1,7]naphthyridine-8-carboxamide], the pIC50 in the test with HCT116 MTAP null cells was 6.35; in the test on HCT116 WT cells, 4.60.

As for `C[C@H]1OCc2c1c(N)nc1cnc(C(=O)N(Cc3ccc(C4CC4)cn3)C3CC3)cc21` [Example 416, (3R)-4-amino-N-cyclopropyl-N-((5-cyclopropyl-2-pyridinyl)methyl)-3-methyl-1,3-dihydrofuro[3,4-c][1,7]naphthyridine-8-carboxamide], the pIC50 was 7.21 in the test with HCT116 MTAP null cells and 5.08 in the test with HCT116 WT cells.
